For experiment [1], the system named is TNF-α secretion by activated splenocytes. Nature of the experiment: TNF-α cytokine suppression assay, MSC co-culture with LPS or PHA-activated splenocytes. Format: cell-based, mouse. The note with it: 10 μM; for effect on the ability of shear treated MSC to suppress TNF-α production: six MSC donor lines. The source says: FIG. 22 illustrates TNF-α cytokine suppression assays that highlight functional enhancement of MSC immunomodulation. Human MSCs preconditioned by mechanical force (15 dyne/cm2 shear stress for 3 hrs) are placed in static co-culture with lipopoly-saccharide (LPS) or phytohaemagglutinin (PHA)-activated splenocytes including macrophages, neutrophils, NK, B, and T cells. […] Lower values correspond to greater anti-inflammatory potency. hBM MSC, human bone marrow MSC; hAF MSC, amniotic fluid MSC (indicated by a “*” in graph); hAD MSC, adipose-derived MSC (indicated by a “^” in graph). P-values calculated by paired t-test, equal variance.
(§1) Similarly it was determined utilizing commercially available ELISAs that the media from human MSCs cultures that had been subject to fluid shear stress also contained immunomodulatory proteins, such as prostaglandin E2. In addition, Western blotting confirmed elevated protein levels (translation) of COX2, TSG6, and IL1RN. Actin protein expression levels, which are constant, were used as a control for baseline protein expression. […] It was also determined that this induction could be abrogated by the addition of 10 uM of the NF-kappaB antagonist BAY11-7085 (FIG. 21). Furthermore by utilizing commercially available ELISAs, it was determined that the media from human MSCs cultures that had been subject to fluid shear stress for as little as 3 hours had immunosuppressive activity, as evidenced by the 10-50% reduction in TNF-α when treated hMSCs were co-cultured with activated immune cells from the spleen (FIG. 22).

For experiment [2], the system named is COX2 protein in human MSC. In words: Western blot of intracellular COX2 protein in shear stressed MSCs. Format: cell-based. Conditions: 10 μM, 8 hours of fluid shear stress. Here is the method:
A pilot study was conducted to provide proof of principle that fluid shear stress can be used to condition stem cells, alter gene expression, and enhance functional activities. To exemplify the conditioning activity of shear stress of the type provided by the present system, but on a much smaller analytical scale, force (shear stress) was applied using custom fabricated slides or IBIDI® small-scale microfluidics channel slides obtained from IBIDI, LLC. (Verona, Wis., USA). Human samples were harvested from bone marrow (BM), amniotic fluid (AF), or adipose (AD) tissue, processed for isolation and expansion of hMSC, and stored frozen. Frozen hMSCs were thawed and seeded into T225 cell culture flasks with 50 ml Minimum Essential Medium (MEM-α) (20% FBS, 5% Penicillin/Streptomycin, 5% Glutamine). The media was replaced every 3-4 days. hMSCs were maintained in culture until they were almost 100% confluent. […] The number of live cells present was determined using trypan blue dye exclusion. Live cell counts were determined on a hemacytometer and the cells were resuspended to obtain the desired concentration for each assay (see Table 1). […]
Similarly it was determined utilizing commercially available ELISAs that the media from human MSCs cultures that had been subject to fluid shear stress also contained immunomodulatory proteins, such as prostaglandin E2. […]
(In general: In western blotting, separated proteins are transferred to a membrane and probed.)

The test system of the next experiment is human amniotic fluid MSC. Nature of the experiment: Priming agents combined with shear stress, anti-inflammatory signaling in hAF MSC. It is filed as cell-based. As to the method:
FIG. 24 illustrates that priming agents complement shear-induced anti-inflammatory signaling. Darkened bars represent treatment combinations that indicate a substantial induction of the pathway by shear stress and cytokines (IFN-γ, 20 ng/ml; TNF-α, 50 ng/ml). In this low-performance human amniotic MSC line, TSG6 was induced by shear stress only. IDO was induced by IFN-γ only. hAF MSC, human amniotic fluid MSC.
as §1

The values that follow come from US11162063B2, “Methods and apparatus for conditioning cell populations for cell therapies” (THE BOARD OF REGENTS OF THE UNIVERSITY OF TEXAS SYSTEM, priority 2015, dated 2021).

Entries after “also recorded” stand apart in the source; their conditions may differ.

Take `CC(C)(C)c1ccc(S(=O)(=O)/C=C/C#N)cc1` [BAY11-7085]: the “effect on the ability of shear treated MSC to suppress TNF-α production” value (“effect on the ability” below) in experiment [1] was “abrogate the positive effects of shear stress”. In experiment [2], the “effect on shear-induced COX2 protein” value is “abrogated; also recorded: reduced”.

As for `COc1ccc2c(c1)c(CC(=O)O)c(C)n2C(=O)c1ccc(Cl)cc1` [Indomethacin], the “effect on the ability” value in experiment [1] was “abrogate the positive effects of shear stress”.

With `CS(=O)(=O)Nc1ccc([N+](=O)[O-])cc1OC1CCCCC1` [NS-398], the “effect on the ability” value in experiment [1] was “abrogate the positive effects of shear stress”.

Consider `CCCCC(C)(C)C(O)C=CC1C(O)CC(=O)C1CC=CCCCC(=O)O` (stereo not shown) [dmPGE2, 16,16′-dimethyl prostaglandin E2], for which the “effect of ectopic agent on TNF-α production” value in experiment [1] (compared with sheared MSCs) was “reduced TNF-α to levels produced in the presence of sheared MSCs; also recorded: mimics MSC suppression”.

With IFN-γ: cytokine priming agent, 20 ng/ml, in the experiment with human amniotic fluid MSC (IFN-γ 20 ng/ml plus shear stress), the “induction of COX2 and HMOX1 in sheared MSCs with added priming agent” value is “greater induction”. Moreover, the IDO induction result with human amniotic fluid MSC (IFN-γ 20 ng/ml, low-performance human amniotic MSC line) is listed as “induced”.
